Data reported in ChEMBL document CHEMBL3091320, “6-(4-Pyridyl)pyrimidin-4(3H)-ones as CNS penetrant glycogen synthase kinase-3β inhibitors” (Bioorg Med Chem Lett, 2013).

Experiments:
[1] = Clearance in rat microsomes; type: ADME, Microsome
Brain = assay: Drug uptake in Wistar rat brain at 30 mg/kg, ip measured at 0.25 hrs; type: ADME, organism-based; set-up: dose 30 mg/kg, route intraperitoneal; conditions: in vivo
Rattus norvegicus = assay: Reduction in tau protein phosphorylation in Wistar rat prefrontal cortex at 100 mg/kg, ip after 15 mins to 2 hrs by western blot analysis relative to vehicle-treated control; type: functional; set-up: scale not given: the % may be the effect or the level left; conditions: route intraperitoneal
[2] = Inhibition of CYP1A (unknown origin); type: ADME, Homo sapiens
[3] = target: Glycogen synthase kinase-3 beta (Homo sapiens, UniProt P49841); assay: Inhibition of human recombinant GSK3beta using prephosphorylated GS1 peptide as substrate after 1 hr by liquid scintillation spectrometry
Sequence of Glycogen synthase kinase-3 beta (P49841 whole entry): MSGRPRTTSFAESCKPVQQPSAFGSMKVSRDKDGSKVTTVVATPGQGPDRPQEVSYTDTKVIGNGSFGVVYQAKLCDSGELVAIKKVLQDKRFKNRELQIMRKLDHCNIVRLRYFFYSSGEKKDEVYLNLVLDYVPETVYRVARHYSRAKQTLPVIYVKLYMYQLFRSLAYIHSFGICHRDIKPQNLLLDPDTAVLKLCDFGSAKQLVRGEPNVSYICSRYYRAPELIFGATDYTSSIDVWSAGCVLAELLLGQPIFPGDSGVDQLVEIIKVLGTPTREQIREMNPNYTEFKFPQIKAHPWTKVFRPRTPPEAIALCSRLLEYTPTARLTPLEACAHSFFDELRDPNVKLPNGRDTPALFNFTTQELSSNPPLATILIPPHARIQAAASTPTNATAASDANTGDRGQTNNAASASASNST

[4] = Permeability co-efficient in Wistar rat brain at 30 mg/kg, ip measured at 0.25 hrs; type: ADME, organism-based; set-up: dose 30 mg/kg, route intraperitoneal

Compound: Cn1c(NCC(=O)c2ccccc2)nc(-c2ccncc2)cc1=O
- CL [1]: 172 µL/min/mg
- Drug uptake (Brain): 11.2 uM/ml
- Activity (Rattus norvegicus): 24%
- IC50 [2]: 5700 nM
- IC50 [3]: 8.9 nM
- Kp at 0.25 h [4]: 1.15

Compound: Cn1c(NCC(=O)c2ccc(F)cc2)nc(-c2ccncc2)cc1=O
- CL [1]: 166 µL/min/mg
- IC50 [2]: 10900 nM
- IC50 [3]: 52 nM

Compound: Cn1c(NCC(=O)c2cccc(Cl)c2)nc(-c2ccncc2)cc1=O
- CL [1]: 262 µL/min/mg
- IC50 [2]: 670 nM
- IC50 [3]: 13 nM

Compound: Cc1cccc(C(=O)CNc2nc(-c3ccncc3)cc(=O)n2C)c1
- CL [1]: 262 µL/min/mg
- IC50 [2]: 2200 nM
- IC50 [3]: 38 nM

Compound: Cn1c(NCC(=O)c2cccc(C#N)c2)nc(-c2ccncc2)cc1=O
- CL [1]: 133 µL/min/mg
- IC50 [2]: > 53300 nM
- IC50 [3]: 13 nM

Compound: Cc1nc(-c2ccncc2)cc(=O)[nH]1
- IC50 [3]: 3000 nM

Compound: CCCCc1nc(-c2ccncc2)cc(=O)[nH]1
- IC50 [3]: 1300 nM

Compound: CC(C)c1nc(-c2ccncc2)cc(=O)[nH]1
- IC50 [3]: 2100 nM

Compound: CC(C)Cc1nc(-c2ccncc2)cc(=O)[nH]1
- IC50 [3]: 2400 nM

Compound: O=c1cc(-c2ccncc2)nc(-c2ccccc2)[nH]1
- IC50 [3]: 1800 nM

Compound: O=c1cc(-c2ccncc2)nc(Cc2ccccc2)[nH]1
- IC50 [3]: 1300 nM

Compound: O=c1cc(-c2ccncc2)nc(CCc2ccccc2)[nH]1
- IC50 [3]: 8900 nM

Compound: O=c1cc(-c2ccncc2)nc(CCCc2ccccc2)[nH]1
- IC50 [3]: 500 nM

Compound: Cn1c(CCCc2ccccc2)nc(-c2ccncc2)cc1=O
- IC50 [3]: 90 nM

Compound: CCn1c(CCCc2ccccc2)nc(-c2ccncc2)cc1=O
- IC50 [3]: 1900 nM

Compound: CCCn1c(CCCc2ccccc2)nc(-c2ccncc2)cc1=O
- IC50 [3]: 9800 nM

Compound: O=c1cc(-c2ccncc2)nc(CCCc2ccccc2)n1Cc1ccccc1
- IC50 [3]: 2200 nM

Compound: Cn1c(OCCc2ccccc2)nc(-c2ccncc2)cc1=O
- IC50 [3]: 200 nM

Compound: Cn1c(NCCc2ccccc2)nc(-c2ccncc2)cc1=O
- IC50 [3]: 70 nM

Compound: Cn1c(NCCC2CCCCC2)nc(-c2ccncc2)cc1=O
- IC50 [3]: 39 nM

Compound: Cn1c(NCC(O)c2ccccc2)nc(-c2ccncc2)cc1=O (configuration not stated)
- IC50 [3]: 23 nM

Compound: Cn1c(N(CCCCN)CCc2ccccc2)nc(-c2ccncc2)cc1=O
- IC50 [3]: 130 nM

Compound: Cn1c(N(CCCCCN)CCc2ccccc2)nc(-c2ccncc2)cc1=O
- IC50 [3]: 150 nM

Compound: Cn1c(NCC(=O)c2ccccc2F)nc(-c2ccncc2)cc1=O
- CL [1]: 158 µL/min/mg
- IC50 [2]: 3800 nM
- IC50 [3]: 27 nM

Compound: Cn1c(NCC(=O)c2cccc(F)c2)nc(-c2ccncc2)cc1=O
- CL [1]: 207 µL/min/mg
- IC50 [2]: 4200 nM
- IC50 [3]: 25 nM
